In ChEMBL document CHEMBL1671626, “In vitro profiling of ceftaroline against a collection of recent bacterial clinical isolates from across the United States” (2008):

Key:
Type in all cases: functional
Providencia sp. [1] = test: Antibacterial activity against ceftazidime-susceptible Providencia sp. assessed as susceptible isolates by CLSI M7-A7 broth microdilution method
Acinetobacter [2] = test: Antibacterial activity against imipenem-susceptible Acinetobacter assessed as resistant isolates by CLSI M7-A7 broth microdilution method
Citrobacter freundii [3] = test: Antibacterial activity against ceftazidime-nonsusceptible Citrobacter freundii assessed as resistant isolates by CLSI M7-A7 broth microdilution method
Enterobacter cloacae [4] = test: Antibacterial activity against ceftazidime-susceptible Enterobacter cloacae assessed as resistant isolates by CLSI M7-A7 broth microdilution method
Proteus mirabilis = test: Antibacterial activity against ceftazidime-susceptible Proteus mirabilis assessed as susceptible isolates by CLSI M7-A7 broth microdilution method
Haemophilus influenzae = test: Antibacterial activity against beta lactamase-positive Haemophilus influenzae assessed as susceptible isolates by CLSI M7-A7 broth microdilution method
Klebsiella pneumoniae [5] = test: Antibacterial activity against ceftazidime-susceptible Klebsiella pneumoniae assessed as resistant isolates by CLSI M7-A7 broth microdilution method
Enterobacter cloacae [6] = test: Antibacterial activity against ceftazidime-nonsusceptible Enterobacter cloacae assessed as susceptible isolates by CLSI M7-A7 broth microdilution method
Streptococcus agalactiae = test: Antibacterial activity against erythromycin-susceptible Streptococcus agalactiae by CLSI M7-A7 broth microdilution method
Staphylococcus aureus [7] = test: Antibacterial activity against coagulase-negative and oxacillin-susceptible Staphylococcus aureus by CLSI M7-A7 broth microdilution method
Staphylococcus aureus [8] = test: Antibacterial activity against coagulase-negative and oxacillin-resistant Staphylococcus aureus assessed as resistant isolates by CLSI M7-A7 broth microdilution method
Klebsiella pneumoniae [9] = test: Antibacterial activity against ceftazidime-nonsusceptible Klebsiella pneumoniae assessed as susceptible isolates by CLSI M7-A7 broth microdilution method
Escherichia coli [10] = test: Antibacterial activity against ceftazidime-susceptible Escherichia coli assessed as susceptible isolates by CLSI M7-A7 broth microdilution method
Staphylococcus aureus [11] = test: Antibacterial activity against methicillin-susceptible Staphylococcus aureus by CLSI M7-A7 broth microdilution method
Staphylococcus aureus [12] = test: Antibacterial activity against coagulase-negative and oxacillin-resistant Staphylococcus aureus assessed as susceptible isolates by CLSI M7-A7 broth microdilution method
Klebsiella pneumoniae [13] = test: Antibacterial activity against ceftazidime-susceptible Klebsiella pneumoniae assessed as susceptible isolates by CLSI M7-A7 broth microdilution method
Serratia marcescens [14] = test: Antibacterial activity against ceftazidime-susceptible Serratia marcescens by CLSI M7-A7 broth microdilution method
Providencia sp. [15] = test: Antibacterial activity against ceftazidime-susceptible Providencia sp. assessed as resistant isolates by CLSI M7-A7 broth microdilution method
Citrobacter freundii [16] = test: Antibacterial activity against ceftazidime-susceptible Citrobacter freundii by CLSI M7-A7 broth microdilution method
Enterococcus faecalis [17] = test: Antibacterial activity against vancomycin-resistant Enterococcus faecalis by CLSI M7-A7 broth microdilution method
Citrobacter freundii [18] = test: Antibacterial activity against ceftazidime-susceptible Citrobacter freundii assessed as susceptible isolates by CLSI M7-A7 broth microdilution method
Citrobacter freundii [19] = test: Antibacterial activity against ceftazidime-nonsusceptible Citrobacter freundii by CLSI M7-A7 broth microdilution method
Escherichia coli [20] = test: Antibacterial activity against ceftazidime-nonsusceptible Escherichia coli assessed as susceptible isolates by CLSI M7-A7 broth microdilution method
Escherichia coli [21] = test: Antibacterial activity against ceftazidime-susceptible Escherichia coli by CLSI M7-A7 broth microdilution method
Staphylococcus aureus [22] = test: Antibacterial activity against methicillin-susceptible Staphylococcus aureus assessed as susceptible isolates by CLSI M7-A7 broth microdilution method
Acinetobacter [23] = test: Antibacterial activity against multidrug-resistant Acinetobacter assessed as resistant isolates by CLSI M7-A7 broth microdilution method
Staphylococcus aureus [24] = test: Antibacterial activity against methicillin-resistant Staphylococcus aureus assessed as susceptible isolates by CLSI M7-A7 broth microdilution method
Enterobacteriaceae [25] = test: Antibacterial activity against ceftazidime-susceptible Enterobacteriaceae assessed as susceptible isolates by CLSI M7-A7 broth microdilution method
Escherichia coli [26] = test: Antibacterial activity against ceftazidime-nonsusceptible Escherichia coli assessed as resistant isolates by CLSI M7-A7 broth microdilution method
Streptococcus pneumoniae [27] = test: Antibacterial activity against penicillin-resistant Streptococcus pneumoniae by CLSI M7-A7 broth microdilution method
Staphylococcus aureus [28] = test: Antibacterial activity against methicillin-susceptible Staphylococcus aureus assessed as resistant isolates by CLSI M7-A7 broth microdilution method
Moraxella catarrhalis [29] = test: Antibacterial activity against beta lactamase-positive Moraxella catarrhalis by CLSI M7-A7 broth microdilution method
Morganella morganii = test: Antibacterial activity against ceftazidime-susceptible Morganella morganii assessed as susceptible isolates by CLSI M7-A7 broth microdilution method
Enterococcus faecalis [30] = test: Antibacterial activity against vancomycin-susceptible Enterococcus faecalis by CLSI M7-A7 broth microdilution method
Escherichia coli [31] = test: Antibacterial activity against ceftazidime-nonsusceptible Escherichia coli by CLSI M7-A7 broth microdilution method
Enterobacteriaceae [32] = test: Antibacterial activity against ceftazidime-nonsusceptible Enterobacteriaceae assessed as resistant isolates by CLSI M7-A7 broth microdilution method
Enterococcus faecium = test: Antibacterial activity against vancomycin-resistant Enterococcus faecium by CLSI M7-A7 broth microdilution method
Moraxella catarrhalis [33] = test: Antibacterial activity against beta lactamase-positive Moraxella catarrhalis assessed as susceptible isolates by CLSI M7-A7 broth microdilution method
Serratia marcescens [34] = test: Antibacterial activity against ceftazidime-susceptible Serratia marcescens assessed as susceptible isolates by CLSI M7-A7 broth microdilution method
Acinetobacter [35] = test: Antibacterial activity against multidrug-resistant Acinetobacter assessed as susceptible isolates by CLSI M7-A7 broth microdilution method
Enterobacter cloacae [36] = test: Antibacterial activity against ceftazidime-nonsusceptible Enterobacter cloacae assessed as resistant isolates by CLSI M7-A7 broth microdilution method
Streptococcus pneumoniae [37] = test: Antibacterial activity against penicillin-resistant Streptococcus pneumoniae assessed as resistant isolates by CLSI M7-A7 broth microdilution method
Klebsiella pneumoniae [38] = test: Antibacterial activity against ceftazidime-nonsusceptible Klebsiella pneumoniae by CLSI M7-A7 broth microdilution method
Streptococcus pyogenes = test: Antibacterial activity against erythromycin-nonsusceptible Streptococcus pyogenes by CLSI M7-A7 broth microdilution method
Streptococcus pneumoniae [39] = test: Antibacterial activity against penicillin-resistant Streptococcus pneumoniae assessed as susceptible isolates by CLSI M7-A7 broth microdilution method

`C[C@H]1COc2c(N3CCN(C)CC3)c(F)cc3c(=O)c(C(=O)O)cn1c23.C[C@H]1COc2c(N3CCN(C)CC3)c(F)cc3c(=O)c(C(=O)O)cn1c23.O` [LEVOFLOXACIN] was tested, and the Activity (Providencia sp. [1]) was 66.7%, the Activity (Acinetobacter [2]) was 36.2% and the Activity (Citrobacter freundii [3]) was 24.2%. It also gave an Activity (Enterobacter cloacae [4]) of 2%, an Activity (Proteus mirabilis) of 75.9% and an Activity (Haemophilus influenzae) of 100%. The Activity (Klebsiella pneumoniae [5]) was 1.4%, the Activity (Enterobacter cloacae [6]) was 62.9% and the MIC50 (Streptococcus agalactiae) was 0.5 µg/mL. The MIC90 (Streptococcus agalactiae) was 1 µg/mL, the MIC50 (Staphylococcus aureus [7]) was 0.12 µg/mL and the MIC90 (Staphylococcus aureus [7]) was 8 µg/mL. The Activity (Staphylococcus aureus [8]) was 73.9%, the Activity (Klebsiella pneumoniae [9]) was 37.9% and the Activity (Escherichia coli [10]) was 86.4%. It also gave an MIC50 (Staphylococcus aureus [11]) of 0.12 µg/mL, an MIC90 (Staphylococcus aureus [11]) of 16 µg/mL and an Activity (Staphylococcus aureus [12]) of 21.7%. It also gave an Activity (Klebsiella pneumoniae [13]) of 98.1%, an MIC50 (Serratia marcescens [14]) of 0.12 µg/mL and an MIC90 (Serratia marcescens [14]) of 1 µg/mL. For the same compound, the Activity (Providencia sp. [15]) was 25.9%, the MIC (Citrobacter freundii [16]) was ≤ 0.03 µg/mL and the MIC50 (Citrobacter freundii [16]) was ≤ 0.03 µg/mL. The MIC90 (Citrobacter freundii [16]) was 1 µg/mL, the MIC50 (Enterococcus faecalis [17]) was > 16 µg/mL and the Activity (Citrobacter freundii [18]) was 98%. For the same compound, the MIC50 (Citrobacter freundii [19]) was 0.25 µg/mL, the MIC90 (Citrobacter freundii [19]) was 16 µg/mL and the Activity (Escherichia coli [20]) was 14.3%. For the same compound, the MIC50 (Escherichia coli [21]) was ≤ 0.03 µg/mL, the MIC90 (Escherichia coli [21]) was 16 µg/mL and the Activity (Staphylococcus aureus [22]) was 83.9%. For the same compound, the Activity (Acinetobacter [23]) was 87.5%, the Activity (Staphylococcus aureus [24]) was 25.6% and the Activity (Enterobacteriaceae [25]) was 89.6%. The Activity (Escherichia coli [26]) was 85.7%, the MIC50 (Streptococcus pneumoniae [27]) was 0.5 µg/mL and the MIC90 (Streptococcus pneumoniae [27]) was 1 µg/mL. For the same compound, the Activity (Staphylococcus aureus [28]) was 15.2%, the MIC (Moraxella catarrhalis [29]) was ≤ 0.03 µg/mL and the MIC50 (Moraxella catarrhalis [29]) was ≤ 0.03 µg/mL. The MIC90 (Moraxella catarrhalis [29]) was ≤ 0.03 µg/mL, the Activity (Morganella morganii) was 76.5% and the MIC50 (Enterococcus faecalis [30]) was 1 µg/mL. For the same compound, the MIC90 (Enterococcus faecalis [30]) was > 16 µg/mL, the MIC50 (Escherichia coli [31]) was > 16 µg/mL and the MIC90 (Escherichia coli [31]) was > 16 µg/mL. The Activity (Enterobacteriaceae [32]) was 51.4%, the MIC (Enterococcus faecium) was > 16 µg/mL and the MIC50 (Enterococcus faecium) was > 16 µg/mL. The MIC90 (Enterococcus faecium) was > 16 µg/mL, the Activity (Moraxella catarrhalis [33]) was 100% and the Activity (Serratia marcescens [34]) was 98.3%. The Activity (Acinetobacter [35]) was 6.3%, the Activity (Enterobacter cloacae [36]) was 25.7% and the Activity (Streptococcus pneumoniae [37]) was 0.7%. For the same compound, the MIC50 (Klebsiella pneumoniae [38]) was 8 µg/mL, the MIC90 (Klebsiella pneumoniae [38]) was > 16 µg/mL and the MIC50 (Streptococcus pyogenes) was 0.5 µg/mL. The MIC90 (Streptococcus pyogenes) was 1 µg/mL and the Activity (Streptococcus pneumoniae [39]) was 99.3%.
